Reference: ChEMBL document CHEMBL1147934, “Discovery of a novel small molecule binding site of human survivin” (Bioorg Med Chem Lett, 2007)
In brackets after ≈: the same amount, converted by molar mass.

Test system: not listed separately
Assay: Solubility at pH 7.4 by shake flask method
Assay type: physicochemical
Settings: buffer
Molecule CC(=O)N1CCC(C(=O)N(C)Cc2cc(Cl)cc(-c3cc(-c4cc(C(F)(F)F)ccc4Cl)c(C#N)c(=O)[nH]3)c2O)CC1 has a solubility thermodynamic of 300 µM (≈ 186 µg/mL). COCC(=O)N1CCC(C(=O)N(C)Cc2cc(Cl)cc(-c3cc(-c4cc(C(F)(F)F)ccc4Cl)c(C#N)c(=O)[nH]3)c2O)CC1 gave a solubility thermodynamic of 138 µM (≈ 89.9 µg/mL).

Target: Baculoviral IAP repeat-containing protein 5 (Homo sapiens, UniProt O15392)
Sequence (O15392 whole entry): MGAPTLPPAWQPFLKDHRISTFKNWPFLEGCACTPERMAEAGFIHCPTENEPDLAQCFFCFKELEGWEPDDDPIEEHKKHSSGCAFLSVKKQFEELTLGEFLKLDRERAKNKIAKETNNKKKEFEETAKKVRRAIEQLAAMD
Assay: Binding affinity to human survivin expressed in Escherichia coli BL21 cells after 30 mins
Settings: not given
Work on CC1(C)NC(=O)N(C/C(COc2ccc(-c3ccc(OC(F)(F)F)cc3)cc2)=N/O)C1=O yielded a Kd of less than 10 µM. Work on Cc1ccnc(NC(=O)C2CCNCC2)c1 yielded a Kd of 130 µM. For N#Cc1c(-c2ccccc2)cc(-c2cc(Br)ccc2O)[nH]c1=O, the Kd was 5 µM. For N#Cc1c(-c2cc(-c3ccccc3)ccc2Cl)cc(-c2cc(Br)ccc2O)[nH]c1=O, the Kd was greater than 4.3 µM. Clc1cccc(Nc2ccc3ccccc3c2)c1 showed a Kd of less than 10 µM. In the case of N#Cc1c(-c2ccccc2)cc(-c2ccccc2O)[nH]c1=O, the Kd is reported as 75 µM. Molecule CCc1oc2ccccc2c1C(=O)c1cc(I)c(O)c(I)c1 [BENZIODARONE] has a Kd of 8 µM.

Test system: not listed separately
Assay: Solubility by nephelometry
Assay type: physicochemical
Settings: not given
Work on CC(=O)N1CCC(C(=O)N(C)Cc2cc(Cl)cc(-c3cc(-c4cc(C(F)(F)F)ccc4Cl)c(C#N)c(=O)[nH]3)c2O)CC1 yielded a solubility kinetic greater than 32 µM. Molecule COCC(=O)N1CCC(C(=O)N(C)Cc2cc(Cl)cc(-c3cc(-c4cc(C(F)(F)F)ccc4Cl)c(C#N)c(=O)[nH]3)c2O)CC1 has a solubility kinetic greater than 32 µM. CN(Cc1cc(Cl)cc(-c2cc(-c3cc(C(F)(F)F)ccc3Cl)c(C#N)c(=O)[nH]2)c1O)C(=O)C1CCN(C(=O)C2CCCCC2)CC1 showed a solubility kinetic greater than 32 µM. CCCC(=O)N1CCC(C(=O)N(C)Cc2cc(Cl)cc(-c3cc(-c4cc(C(F)(F)F)ccc4Cl)c(C#N)c(=O)[nH]3)c2O)CC1 gave a solubility kinetic greater than 32 µM.
